Counter-ions that a name gives are not always drawn.

A word on the IC50: it is the midpoint of a concentration-inhibition curve. A lower IC50 goes with higher potency.

For the experiment, the target named is T1, human αVβ6 (Homo sapiens, UniProt P06756+P18564).
T1 construct: purchased R & D systems 3817-AV
T1 sequence (P06756 31-992 limits assumed): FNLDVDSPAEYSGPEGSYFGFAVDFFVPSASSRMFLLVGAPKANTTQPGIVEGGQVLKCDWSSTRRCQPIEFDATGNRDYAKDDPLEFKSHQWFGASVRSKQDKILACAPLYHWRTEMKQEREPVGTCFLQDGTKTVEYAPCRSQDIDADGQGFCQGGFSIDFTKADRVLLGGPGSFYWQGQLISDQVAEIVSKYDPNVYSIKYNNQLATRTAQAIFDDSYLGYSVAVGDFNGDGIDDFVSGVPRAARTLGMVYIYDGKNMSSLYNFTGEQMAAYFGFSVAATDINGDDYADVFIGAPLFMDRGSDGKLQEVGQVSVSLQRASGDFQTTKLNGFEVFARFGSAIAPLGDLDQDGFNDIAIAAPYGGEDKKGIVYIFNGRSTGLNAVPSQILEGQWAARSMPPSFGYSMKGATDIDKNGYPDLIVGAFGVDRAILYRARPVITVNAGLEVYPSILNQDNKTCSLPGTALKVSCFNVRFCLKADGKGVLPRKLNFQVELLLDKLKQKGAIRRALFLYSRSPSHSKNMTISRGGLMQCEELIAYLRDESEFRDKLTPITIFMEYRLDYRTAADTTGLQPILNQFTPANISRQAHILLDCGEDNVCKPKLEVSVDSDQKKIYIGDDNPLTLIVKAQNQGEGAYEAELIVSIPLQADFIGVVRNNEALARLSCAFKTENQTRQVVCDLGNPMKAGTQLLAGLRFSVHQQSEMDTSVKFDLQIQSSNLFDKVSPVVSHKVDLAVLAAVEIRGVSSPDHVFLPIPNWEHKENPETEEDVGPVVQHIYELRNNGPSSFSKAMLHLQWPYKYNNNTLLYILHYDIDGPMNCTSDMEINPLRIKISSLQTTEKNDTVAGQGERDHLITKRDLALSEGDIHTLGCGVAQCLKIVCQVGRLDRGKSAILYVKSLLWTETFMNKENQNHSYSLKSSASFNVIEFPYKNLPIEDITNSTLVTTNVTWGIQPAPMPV
T1 sequence (P18564 22-707 limits assumed): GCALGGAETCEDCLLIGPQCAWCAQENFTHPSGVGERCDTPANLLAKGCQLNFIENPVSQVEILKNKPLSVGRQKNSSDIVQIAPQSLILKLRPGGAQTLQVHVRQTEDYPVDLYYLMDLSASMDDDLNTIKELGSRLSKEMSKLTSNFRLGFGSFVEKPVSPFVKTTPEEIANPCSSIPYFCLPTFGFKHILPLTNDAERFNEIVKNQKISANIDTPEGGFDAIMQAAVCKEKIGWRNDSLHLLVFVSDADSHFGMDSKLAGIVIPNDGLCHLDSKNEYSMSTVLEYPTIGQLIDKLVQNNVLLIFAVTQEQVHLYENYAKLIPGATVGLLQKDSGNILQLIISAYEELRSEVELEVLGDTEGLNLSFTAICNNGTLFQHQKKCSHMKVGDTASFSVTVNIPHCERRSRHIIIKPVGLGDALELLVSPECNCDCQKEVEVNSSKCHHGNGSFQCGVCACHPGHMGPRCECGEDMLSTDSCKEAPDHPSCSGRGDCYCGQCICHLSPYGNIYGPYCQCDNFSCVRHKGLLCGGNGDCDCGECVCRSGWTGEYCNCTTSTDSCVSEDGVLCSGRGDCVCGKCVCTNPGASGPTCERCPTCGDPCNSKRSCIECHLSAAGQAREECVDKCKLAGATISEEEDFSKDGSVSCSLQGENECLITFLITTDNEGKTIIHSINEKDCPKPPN
In words: human αVβ6 HTRF binding assay. The conditions noted are these: alternatively SPA-based assay. As for the experimental part: All binding assays used the HTRF (homogeneous time resolved fluorescence) technology from Cisbio International, therefore all assays are described as HTRF binding assays. The assay results for the Examples are listed above together with the characterization data. The HTRF binding assays are established for the following integrins: human αVβ6, human αVβ1, human αVβ3, human αVβ5, and human αVβ8. All assays used the following assay buffer: 20 mM Tris, pH 7.4, 1 mM MgCl2, 1 mM MnCl2, 0.01% Tween 20, and 0.01% BSA. Alternatively, a SPA-based assay was used for evaluation of receptor binding.
The following describes the components and a representative procedure for the human αVβ6 HTRF binding assay: Recombinant human αVβ6 Integrin (R & D systems, 3817-AV) was biotinylated. Biotinylated human αVβ6 Integrin was added to assay vessel at a final concentration of 1.25 nM. FITC-conjugated fibronectin (Cytoskeleton, FNR02) was then added at the final concentration of 5 nM. The mixture was centrifuged at 600 rpm for three minutes using Thermo Fisher Heraeus Multifuge X3 centrifuge and then incubated at RT for an hour. Streptavidin Terbium (Cisbio international 610STLB) was then added at the final concentration of 0.625 nM. The resulting mixture was centrifuged at 600 rpm for three minutes using Thermo Fisher Heraeus Multifuge X3 centrifuge and then incubated at room temperature overnight in dark before reading HTRF signals.
The SPA-based assay was carried out according to the protocol and procedures similar to the ones described in the following reference with appropriate modifications to agents and ligands which are readily understood by one skilled in the art: Pachter J A, Zhang R, Mayer-Ezell R., “Scintillation proximity assay to measure binding of soluble fibronectin to antibody-captured αVβ1 integrin” Anal Biochem. 1995 Sep. 1; 230(1):101-7.
(In general: TR-FRET usually uses a lanthanide donor and a delayed reading to cut background.)
In turn, `COc1ccc([C@H](CC(=O)O)NC(=O)C2CC3(CC(CCc4ccc5c(n4)NCCC5)C3)C2)cn1` (mixture of isomers) [Example 50] came in with an IC50 of 0.11 µM.

For `O=C(N[C@@H](CNC(=O)[C@H]1C[C@@H](Cc2ccc3c(n2)NCCC3)C1)C(=O)O)OCc1cccc(F)c1` (relative stereo) [Example 197], the IC50 stood at 0.197 µM.

On to `COc1ccc([C@H](CC(=O)O)C2(F)CN(C(=O)CCCc3ccc4c(n3)NCCC4)C2)cn1` (single isomer, unassigned) [Example 17], for which the IC50 came out at 0.029 µM.

`COc1ccc([C@@H](CC(=O)O)C2(F)CN(C(=O)CCCc3ccc4c(n3)NCCC4)C2)cn1` (single isomer, unassigned) [Example 18] came in with an IC50 of 0.17 µM.

Take `COc1ccc([C@H](CC(=O)O)N2CC(C)(CCCCc3ccc4c(n3)NCCC4)C2=O)cn1` (single isomer, unassigned) [Example 177]: the IC50 was 0.448 µM.

With `COc1ccc([C@H](CC(=O)O)N2CC(C)(CCCCc3ccc4c(n3)NCCC4)C2=O)cn1` (single isomer, unassigned) [Example 178], the IC50 is 0.102 µM.

`COc1ccc([C@H](CC(=O)O)N2CC(CCCc3ccc4c(n3)NCCC4)C2=O)cc1F` (single isomer, unassigned) [Example 179]: the IC50 worked out at 0.055 µM.

`COc1ccc([C@H](CC(=O)O)N2CC(CCCc3ccc4c(n3)NCCC4)C2=O)cc1F` (single isomer, unassigned) [Example 180] displayed an IC50 of 0.017 µM.

As to `COc1ccc([C@H](CC(=O)O)N2CC(CCCc3ccc4c(n3)NCCC4)C2=O)cn1` (single isomer, unassigned) [Example 181], the IC50 amounted to 0.025 µM.

As for `COc1ccc([C@H](CC(=O)O)N2CC(CCCc3ccc4c(n3)NCCC4)C2=O)cn1` (single isomer, unassigned) [Example 182], the half-maximal inhibitory concentration (IC50) was 0.0057 µM.

In the case of `COc1ccc([C@H](CC(=O)O)N2CC(c3ccc(-c4ccc5c(n4)NCCC5)cc3)C2=O)cn1` (single isomer, unassigned) [Example 183], the concentration for half-maximal inhibition (IC50) came to 0.002 µM.

For `COc1ccc([C@H](CC(=O)O)N2CC(c3ccc(-c4ccc5c(n4)NCCC5)cc3)C2=O)cn1` (single isomer, unassigned) [Example 184], the IC50 was found to be 0.004 µM.

Turning to `Cc1cc(C)c(S(=O)(=O)N[C@@H](CN2CC(CCCc3ccc4c(n3)NCCC4)C2=O)C(=O)O)c(C)c1` (single isomer, unassigned) [Example 185], the IC50 was 0.018 µM.

In turn, `Cc1cc(C)c(S(=O)(=O)N[C@@H](CN2CC(CCCc3ccc4c(n3)NCCC4)C2=O)C(=O)O)c(C)c1` (single isomer, unassigned) [Example 186] returned an IC50 of 0.00061 µM.

The compound `O=C(O)[C@H](CN1CC(CCCc2ccc3c(n2)NCCC3)C1=O)NS(=O)(=O)c1ccc(F)cc1` (single isomer, unassigned) [Example 187] returned an IC50 of 0.024 µM.

In the case of `O=C(O)[C@H](CN1CC(CCCc2ccc3c(n2)NCCC3)C1=O)NS(=O)(=O)c1ccc(F)cc1` (single isomer, unassigned) [Example 188], the IC50 is 0.00334 µM.

As for `COc1ccc(C(NC(=O)C2CC(CCc3ccc4c(n3)NCCC4)C2)C(C)(C)C(=O)O)cn1` (single isomer, unassigned) [Example 189, 3-(6-methoxypyridin-3-yl)-2,2-dimethyl-3-(3-(2-(5,6,7,8-tetrahydro-1,8-naphthyridin-2-yl)ethyl)cyclobutane-1-carboxamido)propanoic acid], the IC50 worked out at 5 µM.

In the case of `COc1ccc(C(NC(=O)C2CC(CCc3ccc4c(n3)NCCC4)C2)C(C)(C)C(=O)O)cn1` (single isomer, unassigned) [Example 190, 3-(6-methoxypyridin-3-yl)-2,2-dimethyl-3-(3-(2-(5,6,7,8-tetrahydro-1,8-naphthyridin-2-yl)ethyl)cyclobutane-1-carboxamido)propanoic acid], the IC50 was determined as 3.3 µM.

Compound `O=C(O)CC(NC(=O)[C@H]1C[C@H](CCc2ccc3c(n2)NCCC3)C1)c1cnc(C(F)(F)F)nc1` (single isomer, unassigned) [Example 193, 3-(trans-3-(2-(5,6,7,8-Tetrahydro-1,8-naphthyridin-2-yl)ethyl)cyclobutane-1-carboxamido)-3-(2-(trifluoromethyl)pyrimidin-5-yl)propanoic acid] gave an IC50 of 0.0057 µM.

For `O=C(O)CC(NC(=O)[C@H]1C[C@H](CCc2ccc3c(n2)NCCC3)C1)c1cnc(C(F)(F)F)nc1` (single isomer, unassigned) [Example 194, 3-(trans-3-(2-(5,6,7,8-Tetrahydro-1,8-naphthyridin-2-yl)ethyl)cyclobutane-1-carboxamido)-3-(2-(trifluoromethyl)pyrimidin-5-yl)propanoic acid], the IC50 was found to be 0.021 µM.

`COc1ccc(C(CC(=O)O)C2CC(CCCCc3ccc4c(n3)NCCC4)C2)cn1` (single isomer, unassigned; diastereomer a) [Example 139, 3-(6-Methoxypyridin-3-yl)-3-(3-(4-(5,6,7,8-tetrahydro-1,8-naphthyridin-2-yl)butyl)cyclobutyl)propanoic acid (Diastereomer A)] returned an IC50 of 0.026 µM.

Regarding `COc1ccc(C(CC(=O)O)C2CC(CCCCc3ccc4c(n3)NCCC4)C2)cn1` (single isomer, unassigned; diastereomer b) [Example 140, 3-(6-Methoxypyridin-3-yl)-3-(3-(4-(5,6,7,8-tetrahydro-1,8-naphthyridin-2-yl)butyl)cyclobutyl)propanoic acid (Diastereomer B)], the IC50 worked out at 0.0077 µM.

Regarding `O=C(O)C[C@H](NC(=O)C1CC2(C1)CN(C(=O)CCc1ccc3c(n1)NCCC3)C2)c1cc(Cl)cc(Cl)c1` [Example 1, (S)-3-(3,5-Dichlorophenyl)-3-(2-(3-(5,6,7,8-tetrahydro-1,8-naphthyridin-2-yl)propanoyl)-2-azaspiro[3.3]heptane-6-carboxamido)propanoic acid, TFA], the IC50 was 0.42 µM.

`COc1ccc([C@H](CC(=O)O)NC(=O)C2CC3(C2)CN(CCc2ccc4c(n2)NCCC4)C3)cn1` [Example 2, (S)-3-(6-Methoxypyridin-3-yl)-3-(2-(2-(5,6,7,8-tetrahydro-1,8-naphthyridin-2-yl)ethyl)-2-azaspiro[3.3]heptane-6-carboxamido)propanoic acid, 3TFA] had an IC50 of 0.013 µM.

With `O=C(O)C[C@H](NC(=O)C1CC2(C1)CN(CCCc1ccc3c(n1)NCCC3)C2)c1cc(Cl)cc(Cl)c1` [Example 3, (S)-3-(3,5-Dichlorophenyl)-3-(2-(3-(5,6,7,8-tetrahydro-1,8-naphthyridin-2-yl)propyl)-2-azaspiro[3.3]heptane-6-carboxamido)propanoic acid], the IC50 turned out to be 0.021 µM.

For `Cc1nc2c(cc1CCN1CC3(CC(C(=O)N[C@@H](CC(=O)O)c4cc(Cl)cc(Cl)c4)C3)C1)CCCN2` [Example 4, (S)-3-(3,5-Dichlorophenyl)-3-(2-(2-(2-methyl-5,6,7,8-tetrahydro-1,8-naphthyridin-3-yl)ethyl)-2-azaspiro[3.3]heptane-6-carboxamido)propanoic acid], the IC50 was determined as 0.025 µM.

For the compound `Cc1cc(C)c(S(=O)(=O)N[C@@H](CNC(=O)C2CC3(CC(CCc4ccc5c(n4)NCCC5)C3)C2)C(=O)O)c(C)c1` (stereo partly drawn) [Example 5, (S)-3-(6-(2-(5,6,7,8-Tetrahydro-1,8-naphthyridin-2-yl)ethyl)spiro[3.3]heptane-2-carboxamido)-2-((2,4,6-trimethylphenyl)sulfonamido)propanoic acid], the concentration for half-maximal inhibition (IC50) was 0.0013 µM.

For the compound `O=C(N[C@@H](CC(=O)N1CC(CCc2ccc3c(n2)NCCC3)C1)C(=O)O)OCc1ccccc1` [Example 7, (S)-2-(((Benzyloxy)carbonyl)amino)-4-oxo-4-(3-(2-(5,6,7,8-tetrahydro-1,8-naphthyridin-2-yl)ethyl)azetidin-1-yl)butanoic acid], the IC50 was determined as 0.064 µM.

`O=C(N[C@@H](CCN1CC2(CC(CCc3ccc4c(n3)NCCC4)C2)C1)C(=O)O)OCc1ccccc1` [Example 8, (S)-2-(((Benzyloxy)carbonyl)amino)-4-(6-(2-(5,6,7,8-tetrahydro-1,8-naphthyridin-2-yl)ethyl)-2-azaspiro[3.3]heptan-2-yl)butanoic acid] came in with a half-inhibitory concentration (IC50) of 0.002 µM.

`O=C(N[C@@H](COC1CN(CCCc2ccc3c(n2)NCCC3)C1)C(=O)O)OCc1ccccc1` [Example 10, N-((Benzyloxy)carbonyl)-O-(1-(3-(5,6,7,8-tetrahydro-1,8-naphthyridin-2-yl)propyl)azetidin-3-yl)-L-serine] yielded an IC50 of 0.0008 µM.

`COc1ccc([C@H](CC(=O)O)NC2CN(CCCc3ccc4c(n3)NCCC4)C2)cn1` [Example 11, (S)-3-(6-Methoxypyridin-3-yl)-3-((1-(3-(5,6,7,8-tetrahydro-1,8-naphthyridin-2-yl)propyl)azetidin-3-yl)amino)propanoic acid]: the IC50 is 0.0005 µM.

Consider `COc1ccc([C@H](CC(=O)O)NC2CN(CCc3ccc4c(n3)NCCC4)C2)cn1` [Example 12, (S)-3-(6-Methoxypyridin-3-yl)-3-((1-(2-(5,6,7,8-tetrahydro-1,8-naphthyridin-2-yl)ethyl)azetidin-3-yl)amino)propanoic acid], for which the IC50 amounted to 0.0036 µM.

(Values after patent publication US11639353B2, “Cyclobutanes- and azetidine-containing mono and spirocyclic compounds as αV integrin inhibitors” (BRISTOL-MYERS SQUIBB COMPANY, priority 2016, dated 2023).)
